Experimental findings from patent publication US12233108B2, “Compositions and methods for promoting islet viability and enhancing insulin secretion” (University of Virginia Patent Foundation, priority 2019, dated 2025) are described below.

Data set [1] relates to human islets. The data set can be described thus: Glucose-stimulated insulin secretion (GSIS) assay, human islets. Type of data set: cell-based. Conditions: for GSIS response / insulin secretion compared to C-95 peptide: human islets, 1 μM peptide overnight, 28 mM glucose. The method, then:
(§1) Human islet cells were similarly incubated with a N-94 peptide or C-95 peptide for varying periods of time following which GSIS assay and viability measurements were conducted. Insulin was measured using Insulin ELISA kit (Mercodia, Uppsala, Sweden).
(§2) Human islet cells were incubated overnight with 1 μM N-94 peptide (SEQ ID NO: 1), N-94/C6 peptide (SEQ ID NO: 62), N104 peptide, Tearpep3 peptide (SEQ ID NO: 21), Tearpep3/C6 peptide (SEQ ID NO: 33), C-95 peptide, or no treatment followed by GSIS assays (se FIG. 2A for the structures of, and Table 2 for the sequences of, these exemplary peptides). C57BL/6 islet cells were pretreated with 4 μM N-94 N-94 peptide or C-95 peptide or saline for 24 hours followed by minimal islet mass transplantation into syngeneic diabetic recipients. Tail vein blood glucoses were measured daily.
(§3) 50 human islets were incubated with N-94 peptide or C-95 peptide for 1, 3, 4, 6 and 9 days following which GSIS assay and viability measurement were conducted. Insulin was measured using Insulin ELISA kit (Mercodia).
Human islets were incubated overnight with 1 μM N-94 peptide, N-94/C6 peptide, N104 peptide, Tearpep3 peptide, Tearpep3/C6 peptide, C-95 peptide, or no treatment and GSIS assay performed.

Data set [2] concerns C57BL/6 islets. Type of data set: cell-based, mouse. Particulars: for viability of islets: C57BL/6, mouse, 4 μM; for mouse islet viability (in words): isolated mouse pancreatic islets, 4 μM peptide, in vitro. The method, then: C57BL/6 islets (see FIG. 3) were cultured with 4 μM N-94 (N-94) peptide or control peptide C-95 for different time periods ranging from 1-15 days in DMEM at 37° C. Viability of islets was scored by propidium iodide-fluorescein diacetate staining. 35 C57BL/6 islets/per well were cultured with 4 μM of N-94 peptide analog N-94 or control C-95 peptide for 1, 2, 5, 7,10 or 15 days in DMEM at 37° C. Viability of islets was scored after staining with PI/FDA. Islets cultured with N-94 peptide retained 95±3, 89±15, 80±17.5 and 61±21% viability while islets cultured with C-95 peptide retained 95±3, 87±13, 40±28 and 20±19% viability at Day 1, 5, 10 and 15.

Data set [3] relates to C57BL/6 islets. The data set can be described thus: Glucose-stimulated insulin secretion (GSIS) assay, mouse islets. Type of data set: cell-based. Conditions: for insulin secreted in GSIS assay: 50 islets/well, high glucose (28 mM); for GSIS: mouse islet cells. The procedure:
C57BL/6 islets were also incubated overnight with 4 μM N-94 peptide (SEQ ID NO: 1) or C-95 peptide or no additive following which Glucose-stimulated Insulin secretion (GSIS) assays were performed.
C57BL/6 islets were incubated overnight with 4 μM N-94 peptide or C-95 peptide or no additive. 50 islets/well were used to perform Glucose stimulated Insulin secretion (GSIS) assay. Islets that were untreated or treated with C-95 peptide or with N-94 peptide and stimulated with high glucose (28 mM) secreted 39.86±7.81, 54.9±18.14, and 91±22.16 ng/ml Insulin. N-94 peptide increased insulin secretion by 2-fold compared to untreated control. Viability of human islets incubated with N-94 peptide at Day 1, 3, 4, 6, and 9 was 95±4, 95±3, 94±4, 84±9, and 80±15% while with C-95 it was 94±4, 91±7, 88±8, 66±16, and 65±18%. With saline it was 94±4, 94±3, 88±8, 58±19, and ˜53. While GSIS results were similar to the mouse results, maximum insulin secretion activity with N-94 peptide was only observed on Day 1 and 3.

Data set [4] deals with human islets. The data set can be described thus: Viability of cultured human islets. Type of data set: cell-based. The procedure: as §1, §3
Human islets were treated with various peptides of the presently disclosed subject matter and viability was assessed at twenty days post-treatment.

For data set [5], the system named is C57BL/6 mice made diabetic by single streptozotocin injection. The experiment in a line: Minimal islet mass transplantation of peptide-pretreated islets into streptozotocin-diabetic mice, blood glucose. The class given is in vivo, mouse. The method, then: as §2
75 C57Bl/6 islets were transplanted into C57BL/6 recipients made diabetic by single STZ injection (220 mg/Kg). Islets were pretreated with 4 μM N-94 peptide or C-95 peptide or saline for 24 hours prior to transplantation into diabetic mice (n=2 mice/group). Tail vein blood glucoses were measured daily. Incubation of islets with N-94 peptide permanently returned transplanted mice to normoglycemia with glucoses below 200 mg/dL within 9 days posttransplant. With C-95 peptide treatment, the glucose at Day 12 posttransplant was <250 mg/dL. Mice transplanted with untreated islets remained diabetic.
FIG. 4 is a graph of blood glucose levels of pancreatic islets treated with the indicated peptides and transplanted into diabetic mice observed for 60 days. Shown is a graph of blood glucose levels after minimal transplantation of 75 N-94 peptide-treated, C-95 peptide-treated, or saline-treated C57Bl/6 islets under the kidney capsule of C57BL/6 mice made diabetic before transplantation by single streptozotocin injection (220 mg/kg; two mice per group). Pretreatment was for 24 hours. Tail vein blood was collected daily for glucose analyses. Each line represents the progressive blood glucose level of a single diabetic mouse. Six mice each received N-94 peptide treated islets (black), six others received C-95 peptide treated islets (blue), and four received saline treated islets (orange). N-94 peptide permanently returned transplanted mice to normoglycemia with glucose below 200 mg/dL within 9 days post-transplantation with treatment efficacy continuing after 40 days post-transplantation. With C-95 peptide treatment, the glucose at Day 12 post-transplant was <250 mg/dL. Average blood glucoses measured between Days 22 to 43 were 142.9±17.6 mg/dL for the N-94 group compared to 275±34.8 mg/dL for the C-95 peptide group.

The subject of another data set is human sensory neurons. The experiment in a line: Viability of iPSC-derived sensory neurons stressed with inflammatory cytokines (Alamar Blue). Type of data set: cell-based. Conditions: day 21 neurons, IFN-γ (1000 U/mL)+TNF-α (100 ng/mL), 1 mM peptide, 72 hours. The method, then:
Whether the peptides of the presently disclosed subject matter could enhance viability of human sensory neurons stressed with inflammatory cytokines was tested. Sensory neurons were derived from Induced Pluripotent Stem Cells (iPSC). iPSCs were seeded into 12 well Matrigel-coated plates (1.25×10^5 cells/well). Neural differentiation was initiated when cells were confluent using KSR medium. 100 nM of LDN-193189 and […] of SB431542 were added to the culture from day 0 to 6, to inhibit SMAD signaling. On day 4, 25% of N2 medium was added to the culture, with 100% of N2 medium at day 10. Sensory neurons induction was initiated at day 2 (day 2-10), with the addition of […] CHIR 99021, […] SU5402, and […] DAPT. From day 10 to day 21 neuron maturation was promoted with 25 ng/mL of β-NGF, BDNF, and GDNF. Cells were fed every day.
Sensory neurons (day 21) were incubated with IFN-g (1000 U/mL)+TNF-α (100 ng/mL) with or without 1 mM of the N-94/C-6 peptide or the negative control C-95 peptide for 72 hours in a 96-well plate. Alamar Blue reagent (10%) was added in each well. Fluorescence was measured after 6 hours (excitation at 545 nm/emission at 590 nm).
In general terms: Alamar Blue is a resazurin reagent that responds to reducing activity.

Setting [6] is: C57BL/6 islets, 4 μM peptide overnight.
Where [7] appears, read: 75 islets pretreated 24 hours with 4 μM peptide, STZ-diabetic C57BL/6 mice.

Entries after “also recorded” stand apart in the source; their conditions may differ. Where two headings read alike, the source gives them in different places. Where no end group is shown, it is not given here.

Take AQKLLKKFSLLKPWA [N-104]: the “rank of activity in glucose-dependent insulin secretion assay” value in the data set on human islets [1] (100 human islets, 1 μM peptide, 24 hours) is “Most active”. In addition, the “GSIS response / insulin secretion compared to C-95 peptide” value with human islets [1] was roughly 3.5 fold.

In the case of “EDASSDSTGADPAQEAGTSKPNEE [C-95, reference compound]”, the viability of islets with C57BL/6 islets [2] (1 days) stood at 95±3%; with C57BL/6 islets [2] (5 days), 87±13%; in the data set on C57BL/6 islets [2] (10 days) it was 40±28%; with C57BL/6 islets [2] (15 days) it was 20%. Besides, the “mouse islet viability (in words)” value in the data set with C57BL/6 islets [2] is recorded as “not”. For the same sequence, the “insulin secreted in GSIS assay” value in the data set with C57BL/6 islets [3] (setting [6]) is 54.9 ± 18.14 ng/mL. In the data set on C57BL/6 islets [3] (4 μM peptide overnight), the GSIS is 54.9 ± 18.1 ng/mL. The “viability of human islets” value in the data set with human islets [4] (1 days) is reported as 94±4%; with human islets [4] (3 days), 91±7%; with human islets [4] (4 days), 88±8%; with human islets [4] (6 days), 66%; with human islets [4] (9 days), 65±18%. In data set [5] (setting [7]), the “average blood glucose between Days 22 to 43” value amounted to 275 ± 34.8 mg/dL. In data set [5] (setting [7]), the “blood glucose at Day 12 posttransplant” value was less than 250 mg/dL.

Consider GKNRRKNWHAQLFVL [Tearpep3/N-104], for which, in the data set on human islets [4] (human islets, 4 μM peptide, versus 4 μM Tearpep3/C-6 and lacritin N-94), the “viability of human islets twenty days after isolation (in words)” value is recorded as “superior viability”.

For the sequence “KQFIENGSEFAQKLLKKFS [N-94/C-6, fragment of lacritin]”, the “viability of stressed human sensory neurons (in words)” value in the data set with human sensory neurons is “restored viability”.

As to KQFIENGSEFAQKLLKKFSLLKPWA [N-94], the viability of islets with C57BL/6 islets [2] (1 days) was 95±3%; in the data set with C57BL/6 islets [2] (5 days), 89±15%; in the data set with C57BL/6 islets [2] (10 days) it was 80±17.5%; in the data set on C57BL/6 islets [2] (15 days), 61%. Also, in the data set on C57BL/6 islets [2], the “mouse islet viability (in words)” value is “promotes mouse islet viability”. For the same sequence, in the data set on C57BL/6 islets [3] (setting [6]), the “insulin secreted in GSIS assay” value came to 91 ± 22.16 ng/mL. Besides, the “increase of GSIS / insulin secretion compared to untreated” value in the data set with C57BL/6 islets [3] (C57BL/6 islets, 4 μM peptide overnight, high glucose) was roughly 2 fold. The “glucose-dependent insulin secretion (in words)” value in the data set with C57BL/6 islets [3] (isolated mouse pancreatic islets, 4 μM peptide, treatment 24 hours after islet isolation) is “promotes”. The GSIS in the data set on C57BL/6 islets [3] (4 μM peptide overnight) was 91 ± 22 ng/mL. For the same sequence, the “viability of human islets” value with human islets [4] (1 days) is on record as 95±4%; in the data set on human islets [4] (3 days), 95±3%; in the data set on human islets [4] (4 days), 94±4%; in the data set on human islets [4] (6 days) it was 84%; in the data set on human islets [4] (9 days), 80±15%. Also, the “GSIS response / insulin secretion compared to C-95 peptide” value in the data set with human islets [1] is on record as “near doubling; also recorded: nearly doubled”. Moreover, the “average blood glucose between Days 22 to 43” value in data set [5] (setting [7]) came to 142.9 ± 17.6 mg/dL. In data set [5] (setting [7]), the “time to normoglycemia (glucose below 200 mg/dL) posttransplant” value was no more than 9 days. Also, in data set [5] (setting [7]), the “treatment efficacy continuing posttransplant” value was greater than 40 days. Also, in data set [5] (75 islets pretreated 24 hours with 4 μM peptide, transplanted into STZ-diabetic C57BL/6 mice, within 9 days posttransplant), the “blood glucose on return to normoglycemia” value is on record as “below 200 mg/dL”. For the same sequence, the “effect of peptide-pretreated islet transplant on diabetes (in words)” value in data set [5] (pretreated islets transplanted into streptozotocin diabetic mice) is reported as “rapidly restores normoglycemia; also recorded: reverse disease”.
